According to paper PMC8113459, “Selective inhibition of cullin 3 neddylation through covalent targeting DCN1 protects mice from acetaminophen-induced liver toxicity” (Nature Communications, 2021):
Where “and” joins values, the source holds several entries; their conditions need not be identical. Identical values can stand only once.

Legend:
U2OS cells = test: Cell viability assay (WST-8), U2OS; format: cell-based, human; conditions: for cell viability relative to control: replicates
Description: (§1) Cell viability assay was performed as previously described. The effect of DCN1 inhibitors on cell growth was evaluated by a WST-8 [2-(2-methoxy-4-nitrophenyl)-3-(4-nitrophenyl)-5-(2,4-disulfophenyl)-2H-tetrazolium, monosodium salt assay (Dojindo Molecular Technologies, Inc). Cells (2000–3000 cells in each well) were seeded in 96-well tissue culture plates in medium (100 μL) and treated with serial dilution of DCN1 inhibitors for 3 days. At the end of incubation, WST-8 dye (20 μL) was added to each well and incubated for 1–3 h, then the absorbance was measured in a microplate reader (Molecular Devices) at 450 nm. Cell growth inhibition was evaluated as the ratio of the absorbance of the sample to that of the control. The values were inserted into Prism software, and the curves and the EC50 values were produced by Prism software.

[1] = Cell viability assay (WST-8), MDA-MB-231; format: cell-based, human; conditions: human, MDA-MB-231 cells, replicates, read-out: cell viability relative to control
Description: as §1

MDA-MB-231 cells = test: Cell viability assay (WST-8), MDA-MB-231; format: cell-based, human; conditions: for cell viability relative to control: replicates
Description: as §1

[2] = Cell viability assay (WST-8), HCT116; format: cell-based, human; conditions: human, HCT116 cells, replicates, read-out: cell viability relative to control
Description: as §1

HCT116 cells = test: Cell viability assay (WST-8), HCT116; format: cell-based, human; conditions: for cell viability relative to control: replicates
Description: as §1

NRF2 protein = test: Western blot, NRF2 protein accumulation in cells; format: cell-based, human; conditions: 100 nM
Description: (§2) Western blotting was performed as described previously. Treated cells were lysed by RIPA buffer supplemented with protease inhibitor. The expression level of indicated proteins was examined by immunoblotting analysis and GAPDH was used as the loading control. Antibodies were purchased commercially: cullin 1 (sc-17775, 1:500 dilution) and cullin 2 (sc-166506, 1:500 dilution) from Santa Cruz Biotech (Santa Cruz, CA); cullin 4A (PA5-14542, 1:1000 dilution), cullin 4B (PA5-50647, 1:1000 dilution), and DCN3 (DCUN1D3, PA5-44000, 1:1000 dilution) from Thermo Fisher Scientific (Wayne, MI); cullin 3 (2759, 1:1000), NRF2 (12721, 1:1000 dilution), HO-1 (70081, 1:1000 dilution), and Bim (2819, 1:1000 dilution) from Cell Signaling Technology (Boston, MA); DCN1 (GWB-E3D700, 1:1000 dilution) from GenWay Biotech (San Diego, CA); and cullin 5 (A302-173A, 1:500 dilution) from Bethyl Labs (Montgomery, TX). Results are representative of two independent experiments.

neddylation of cullin 3 [3] = test: Western blot, cullin 3 neddylation in cells of different tissue types (U2OS, THLE2, MDA-MB-231, KYSE70, HCT116); format: cell-based, human
Description: as §2

Solubility = format: physicochemical
DCN1 [4] = biological target: T1, DCN1 (Homo sapiens, UniProt Q96GG9); test: Intact-protein mass spectrometric analysis of covalent complex formation, Method A; format: binding; conditions: for Percentage of the formation of covalent complex with DCN1 protein: 37 °C
Text: MassHunter Qualitative Analysis software (Agilent) was used to analyze the data. Intact protein masses were obtained using the maximum entropy deconvolution algorithm. The mass spectrometry data in Supplementary Figs. 1–11 were generated by Method A.
Target sequence in this assay (Q96GG9 58-259 limits assumed): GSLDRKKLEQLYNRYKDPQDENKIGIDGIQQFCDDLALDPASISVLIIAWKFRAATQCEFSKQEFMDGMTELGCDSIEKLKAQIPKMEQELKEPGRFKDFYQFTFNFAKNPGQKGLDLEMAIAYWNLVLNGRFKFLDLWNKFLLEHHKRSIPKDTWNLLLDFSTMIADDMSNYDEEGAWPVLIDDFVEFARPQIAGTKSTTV

DCN1 [5] = biological target: T1, DCN1; test: Cocrystal structures of lyso-DCN1-inhibitor complexes; parameters: to DCN1 residues 62–251; His6 (N); TEV cleavage site (N); lysozyme residues 1–164 with C54T, C97A, A146T, D127A, R154A (fusion partner, N-terminal of DCN1); made in house; host or cells: Rosetta 2 cells (E. coli)
Description: Lysozyme–DCN1 gene was synthesized fusing lysozyme residues 1–164, containing mutations (C54T, C97A, A146T, D127A, and R154A), to DCN1 residues 62–251. Ligation independent cloning was utilized to clone the fused gene into an N-terminal His6–TEV expression vector. The clone was transformed into Rosetta 2 cells, grown in terrific broth at 37 °C, and expressed overnight with 0.4 mM isopropyl β-D-1-thiogalactopyranoside at 20 °C. Pelleted cells were freeze-thawed and lysed in 25 mM HEPES, pH 7.5, 150 mM NaCl, 0.1% β-mercaptoethanol and protease inhibitors. Cellular debris was removed via centrifugation. The supernatant was loaded onto a Ni-NTA (Qiagen) column at 4 °C. The column was washed with 25 mM HEPES, pH 7.5, 150 mM NaCl, and 20 mM imidazole, then protein eluted with buffer containing 300 mM imidazole. The eluate was applied to a Superdex 200 (GE Healthcare) equilibrated with 25 mM HEPES, pH 7.5, 200 mM NaCl, and 1 mM DTT. The protein was judged to be greater than 95% pure by SDS-PAGE, concentrated to 3.5 mg/mL and stored at −80 °C. Yield was 450 mg/L of expressed media.
Lyso–DCN1 protein was thawed and concentrated to 9.9 mg/mL in 25 mM HEPES, pH 7.5, 200 mM NaCl, and 1 mM DTT. Each compound was incubated with protein in a 1:1.2 protein to compound molar ratio overnight at 4 °C, then spun and setup in sitting drop vapor diffusion experiments. Crystallization drops contained 2 µL of protein–inhibitor solution and 1 µL of well solution. Crystals grew at 20 °C with well solution containing 28–33% PEG 3350 and 200 mM ammonium formate. Crystals were cryoprotected in 25 mM HEPES, pH 7.5, 200 mM NaCl, 30% PEG 3350, and 1 mM DTT.
Diffraction data were collected at a wavelength of 0.9786 Å on the APS LS-CAT 21-ID-G beamline at Argonne National Laboratory. Data were processed using HKL2000[44] and solved via molecular replacement using molrep[45] with two independent search models (lysozyme and DCN1) from PDB ID 5V83. The structures were iteratively fit and refined using Coot[46] and Buster[47]. […]
Target sequence in this assay (Q96GG9 62-251): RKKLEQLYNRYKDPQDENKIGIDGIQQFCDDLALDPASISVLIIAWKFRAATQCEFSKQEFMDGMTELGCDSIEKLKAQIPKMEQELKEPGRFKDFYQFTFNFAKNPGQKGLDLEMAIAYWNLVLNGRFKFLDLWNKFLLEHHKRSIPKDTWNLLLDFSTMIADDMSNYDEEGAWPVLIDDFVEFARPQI

neddylation of cullin 3 [6] = test: Western blot, cullin 3 neddylation in U2OS cells; format: cell-based, human; conditions: 24 h, Fig. 1c
Description: as §2

[7] = 10 min incubation, 1.2-fold excess inhibitor

CCC(=O)N[C@@H](Cc1nc2ccc(C(C)C)cc2s1)C(=O)N[C@H](CNC(=O)CCN1CCOCC1)C1CCCCC1 [DI-591]
EC50 (U2OS cells; Homo sapiens, U2OS, 72 h, read-out: EC50, cell growth inhibition): > 1000 nM | cell viability relative to control (U2OS cells; conc 10, 72 h): 113.521 and 92.8169 and 93.8028 | cell viability relative to control (U2OS cells; conc 30, 72 h): 110.282 and 96.9014 and 89.8591 | cell viability relative to control (U2OS cells; conc 100, 72 h): 112.958 and 95.2113 and 89.4366 | cell viability relative to control (U2OS cells; conc 300, 72 h): 115.211 and 91.5493 and 99.0141 | cell viability relative to control (U2OS cells; conc 1000, 72 h): 84.9296 and 111.127 and 85.7746 | viability at 72 h ([1]; conc 10, 72 h): 94.3% | viability at 72 h ([1]; conc 30, 72 h): 113% | viability at 72 h ([1]; conc 100, 72 h): 109% | viability at 72 h ([1]; conc 300, 72 h): 105% | viability at 72 h ([1]; conc 1000, 72 h): 94.9% | EC50 (MDA-MB-231 cells; Homo sapiens, MDA-MB-231, 72 h, read-out: EC50, cell growth inhibition): > 1000 nM | cell viability relative to control (MDA-MB-231 cells; conc 10, 72 h): 101.954 and 101.609 | cell viability relative to control (MDA-MB-231 cells; conc 30, 72 h): 108.276 and 97.3563 | cell viability relative to control (MDA-MB-231 cells; conc 100, 72 h): 100.345 and 97.5862 | cell viability relative to control (MDA-MB-231 cells; conc 300, 72 h): 105.517 and 106.667 | cell viability relative to control (MDA-MB-231 cells; conc 1000, 72 h): 102.644 | viability at 72 h ([2]; conc 3, 72 h): 106% | viability at 72 h ([2]; conc 10, 72 h): 94.3% | viability at 72 h ([2]; conc 30, 72 h): 90% | viability at 72 h ([2]; conc 1000, 72 h): 94.3% | EC50 (HCT116 cells; Homo sapiens, HCT-116, 72 h, read-out: EC50, cell growth inhibition): > 1000 nM | cell viability relative to control (HCT116 cells; conc 3, 72 h): 106.068 and 106.647 | cell viability relative to control (HCT116 cells; conc 10, 72 h): 94.7863 and 106.766 | cell viability relative to control (HCT116 cells; conc 30, 72 h): 103.675 and 96.2874 | cell viability relative to control (HCT116 cells; conc 100, 72 h): 92.6577 and 103.333 and 79.1617 | cell viability relative to control (HCT116 cells; conc 300, 72 h): 90.9009 and 107.521 and 85.6886 | cell viability relative to control (HCT116 cells; conc 1000, 72 h): 100.085 and 92.0359

C=C(CN(C)C)C(=O)NC[C@H](NC(=O)[C@@H](Cc1nc2ccc(C(C)C)cc2s1)NC(=O)CC)C1CCCCC1 [DI-1859DD]
accumulation of NRF2 protein (NRF2 protein): no obvious accumulation | times less potent than DI-1548 and DI-1859, respectively, on cullin 3 neddylation (neddylation of cullin 3 [3]): > 300 times | effect on the neddylation of cullin 3 (neddylation of cullin 3 [3]; 100–300 nM): no significant effect

CCC(=O)N[C@@H](Cc1nc2ccc(C(C)C)cc2s1)C(=O)N[C@H](CNC(=O)CCl)C1CCCCC1 [compound 2]
solubility (Solubility): poor solubility | covalent complex formation / reaction kinetics with DCN1 protein (in words) (DCN1 [4]): slow reaction kinetics | Percentage of the formation of covalent complex with DCN1 protein (DCN1 [4]; [7]): 0% | Percentage of the formation of covalent complex with DCN1 protein (DCN1 [4]; 180 min (3 h) incubation): 15% | Percentage of the formation of covalent complex with DCN1 protein (DCN1 [4]; 720 min (12 h) incubation): 70%

CCC(=O)N[C@@H](Cc1nc2ccc(C(C)C)cc2s1)C(=O)N[C@H](CNC(=O)/C=C/CN1CCOCC1)C1CCCCC1 [compound 4]
covalent complex formation / reaction kinetics with DCN1 protein (in words) (DCN1 [4]): slower reaction kinetics than 3 or 5 | Percentage of the formation of covalent complex with DCN1 protein (DCN1 [4]; [7]): 0% | Percentage of the formation of covalent complex with DCN1 protein (DCN1 [4]; 60 min (1 h) incubation): 0% | covalent bond to Cys115 of DCN1 in the cocrystal structure (DCN1 [5]): no covalent bond formed

C=C(CCN1CCOCC1)C(=O)NC[C@@H](NC(=O)[C@H](Cc1nc2ccc(C(C)C)cc2s1)NC(=O)CC)C1CCCCC1 [compound 8]
potency in inhibition of cullin 3 neddylation compared with DI-591 (neddylation of cullin 3 [6]): much more potent than DI-591 | covalent complex formation / reaction kinetics with DCN1 protein (in words) (DCN1 [4]): much slower reaction kinetics than 6 and 7 | Percentage of the formation of covalent complex with DCN1 protein (DCN1 [4]; 60 min (1 h) incubation): 15% | Percentage of the formation of covalent complex with DCN1 protein (DCN1 [4]; 720 min (12 h) incubation): 100%

C=C(CCN(C)C)C(=O)NC[C@@H](NC(=O)[C@H](Cc1nc2ccc(C(C)C)cc2s1)NC(=O)CC)C1CCCCC1 [compound 9]
potency in inhibition of cullin 3 neddylation compared with DI-591 (neddylation of cullin 3 [6]): much more potent than DI-591 | covalent complex formation / reaction kinetics with DCN1 protein (in words) (DCN1 [4]): much slower reaction kinetics than 6 and 7 | Percentage of the formation of covalent complex with DCN1 protein (DCN1 [4]; 60 min (1 h) incubation): 30% | Percentage of the formation of covalent complex with DCN1 protein (DCN1 [4]; 180 min (3 h) incubation): 50% | Percentage of the formation of covalent complex with DCN1 protein (DCN1 [4]; 720 min (12 h) incubation): 100%

C=C(Cn1ccnc1)C(=O)NC[C@@H](NC(=O)[C@H](Cc1nc2ccc(C(C)C)cc2s1)NC(=O)CC)C1CCCCC1 [compound 10]
potency in inhibition of cullin 3 neddylation compared with DI-1548 (neddylation of cullin 3 [3]; in cell, Supplementary Fig. 12): ten times less potent than DI-1548 | covalent complex formation / reaction kinetics with DCN1 protein (in words) (DCN1 [4]): slower reaction kinetics with DCN1 than DI-1548 and DI-1859 | Percentage of the formation of covalent complex with DCN1 protein (DCN1 [4]; [7]): 80% | Percentage of the formation of covalent complex with DCN1 protein (DCN1 [4]; 60 min (1 h) incubation): 100% | Percentage of the formation of covalent complex with DCN1 protein (DCN1 [4]; 180 min (3 h) incubation): 100% | Percentage of the formation of covalent complex with DCN1 protein (DCN1 [4]; 720 min (12 h) incubation): 100%
